Laboratory results reported in patent US5156956A, “Transgultaminase” (Ajinomoto Co., Inc., priority 1987, dated 1992).
Like-named read-outs stand apart in the source and are kept apart here. Residues, ends and D or L forms follow the SMILES beside them. *: point of attachment. Cbz = O=C(OCc1ccccc1)*

Columns and labels:
[1] = target: T1, BTG-1 (Streptomyces mobaraensis, UniProt P81453); test: Influence of metal ions on activity; format: biochemical, Streptoverticillium mobaraense IFO 13819; conditions: metal ion 1 mM; None = 100; 30 min
T1 construct: BTGase is dissolved in the culture solution and can be harvested from the culture filtrate; endogenous in cells; host or cells: Streptoverticillium mobaraense IFO 13819 (natural producer; purified from culture filtrate)
T1 sequence (P81453 77-407): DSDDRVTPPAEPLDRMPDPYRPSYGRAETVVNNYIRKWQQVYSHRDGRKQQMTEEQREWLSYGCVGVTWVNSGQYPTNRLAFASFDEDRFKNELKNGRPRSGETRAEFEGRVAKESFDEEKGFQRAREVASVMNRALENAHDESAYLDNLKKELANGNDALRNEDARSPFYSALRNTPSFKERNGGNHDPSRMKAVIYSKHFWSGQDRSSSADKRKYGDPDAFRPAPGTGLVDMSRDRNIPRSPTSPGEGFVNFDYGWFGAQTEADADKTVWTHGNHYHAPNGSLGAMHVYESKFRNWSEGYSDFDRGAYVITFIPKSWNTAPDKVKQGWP
Protocol: (§1) Measurement of the activity of BTGase is carried out by performing a reaction using benzyloxycarbonyl-L-glutaminyl glycine and hydroxylamine as substrates in the absence of Ca^2+, forming an iron complex with the resulting hydroxamic acid in the presence of trichloroacetic acid, measuring absorption at 525 nm and determining the amount of hydroxamic acid by a calibration curve to calculate the activity. The BTGase activity is measured by the method described below, unless otherwise indicated.
(§2) To 0.05 ml of an enzyme solution is added 0.5 ml of Reagent A and they are mixed with each other. After reacting at 37° C. for 30 minutes, Reagent B is added thereto to discontinue the reaction and form an Fe complex. Thereafter, absorbance is measured at 525 nm. […] Separately, a calibration curve is prepared using L-glutamic acid γ-monohydroxamio acid instead of the enzyme solution, and the amount of hydroxamic acid produced is determined by the difference in absorbance described above. An enzyme activity which produces 1 μmol of hydroxamic acid per 1 minute is defined as 1 unit.

[2] = target: T2, BTG-2 (Streptomyces griseocarneus, UniProt A0ABX7RSJ1); format: biochemical, Streptoverticillium griseocarneum IFO 12776; conditions: metal ion 1 mM; None = 100; 30 min
T2 construct: Ca2+-independent; made as pre-pro-protein
Protocol: as §1, §2

[3] = target: T3, BTG-3 (Streptomyces cinnamoneus, UniProt Q8GR90); test: Influence of metal ions on activity; format: biochemical; conditions: metal ion 1 mM; None = 100; 30 min
T3 construct: Ca2+-independent; made as pre-pro-protein
T3 sequence (Q8GR90 86-416): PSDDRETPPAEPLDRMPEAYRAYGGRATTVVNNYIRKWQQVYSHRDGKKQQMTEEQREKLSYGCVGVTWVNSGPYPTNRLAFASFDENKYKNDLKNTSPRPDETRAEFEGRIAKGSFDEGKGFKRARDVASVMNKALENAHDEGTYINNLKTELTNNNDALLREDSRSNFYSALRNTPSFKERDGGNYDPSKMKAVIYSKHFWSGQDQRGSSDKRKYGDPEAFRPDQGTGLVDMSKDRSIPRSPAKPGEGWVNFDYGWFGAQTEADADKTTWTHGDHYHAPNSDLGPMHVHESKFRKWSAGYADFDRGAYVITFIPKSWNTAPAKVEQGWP
Protocol: as §1, §2

[4] = tested on: all BTGases; test: Influence of metal ions, statement on all BTGases; format: biochemical, Streptoverticillium; conditions: metal ion 1 mM
Description: In all BTGases, the activity is inhibited by Cu^2+ and Zn^2+.

[5] = target: T1, BTG-1; test: biochemical; set-up: species or system Streptoverticillium mobaraense IFO 13819; conditions: for inhibition at 1000 µM: read-out: BTG-1 (%) activity with inhibitor
Protocol: as §1, §2

[6] = target: T2, BTG-2; test: biochemical; set-up: species or system Streptoverticillium griseocarneum IFO 12776; conditions: for inhibition at 1000 µM: read-out: BTG-2 (%) activity with inhibitor
Protocol: as §1, §2

[7] = target: T3, BTG-3; test: biochemical; conditions: for inhibition at 1000 µM: read-out: BTG-3 (%) activity with inhibitor
Protocol: as §1, §2

[8] = tested on: all BTGases
[9] = target: T1, BTG-1; test: Substrate specificity: synthetic substrates with hydroxylamine; format: biochemical, Streptoverticillium mobaraense IFO 13819
Protocol: as §1, §2
(§3) Using each BTGase, reactions of various synthetic substrates with hydroxylamine were examined. […] In this case, the concentration of various synthetic substrates is 5 mM. In the table, CBZ, Gln, Gly and Asn are abbreviations for benzyloxycarbonyl group, glutaminyl group, glycyl group and asparaginyl group, respectively.

[10] = target: T2, BTG-2; test: as above; format: biochemical, Streptoverticillium griseocarneum IFO 12776
Protocol: as §1, §2, §3

[11] = target: T3, BTG-3; test: as above; format: biochemical
Protocol: as §1, §2, §3

[12] = target: T4, MTGase (transglutaminase of guinea pig liver) (UniProt P08587); test: Substrate specificity: synthetic substrates; format: biochemical; conditions: Table 4
T4 construct: from tissue; host or cells: guinea pig liver
T4 sequence (P08587 1-690): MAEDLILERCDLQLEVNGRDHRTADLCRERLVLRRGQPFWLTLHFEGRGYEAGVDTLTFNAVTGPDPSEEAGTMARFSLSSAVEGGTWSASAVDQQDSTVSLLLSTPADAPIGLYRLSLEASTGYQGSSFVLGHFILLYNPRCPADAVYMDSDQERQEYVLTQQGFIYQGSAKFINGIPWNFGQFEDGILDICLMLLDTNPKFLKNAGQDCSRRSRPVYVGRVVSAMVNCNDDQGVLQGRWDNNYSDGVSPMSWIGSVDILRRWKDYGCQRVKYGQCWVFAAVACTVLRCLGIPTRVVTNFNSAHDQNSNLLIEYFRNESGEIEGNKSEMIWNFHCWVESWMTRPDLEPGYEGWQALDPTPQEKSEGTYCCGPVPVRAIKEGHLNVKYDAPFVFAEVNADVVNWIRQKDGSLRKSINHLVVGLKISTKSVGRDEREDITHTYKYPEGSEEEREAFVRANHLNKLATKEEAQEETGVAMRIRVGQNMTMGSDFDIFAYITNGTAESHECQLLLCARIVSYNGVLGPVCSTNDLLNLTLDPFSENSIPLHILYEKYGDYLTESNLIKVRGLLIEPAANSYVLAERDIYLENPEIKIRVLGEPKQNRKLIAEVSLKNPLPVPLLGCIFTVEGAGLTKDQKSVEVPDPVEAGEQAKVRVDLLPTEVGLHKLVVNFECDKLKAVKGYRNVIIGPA
Protocol: Next, properties of BTGases are compared to those of guinea pig liver-derived transglutaminase. The guinea pig liver-derived transglutaminase was prepared by the method described in Published Unexamined Japanese Patent Application No. 149645/83. As will be apparent from Tables 4 and 5, various differences in enzymological properties are noted between transglutaminase of guinea pig liver (hereafter referred to as MTGase) which has been mainly investigated heretofore and BTGases derived from actinomycetes; in particular, differences are noted in temperature stability, molecular weight, isoelectric point and substrate specificity. Further, a difference is noted in that the BTGases of the present invention act in the presence and absence of Ca^2+. Therefore, the respective enzymes of the present invention are different from MTGase in their properties.

[13] = tested on: BTGase; test: Substrate specificity, statement on all BTGases; format: biochemical, Streptoverticillium; conditions: substrate 5 mM, with hydroxylamine
Protocol: as §3

[14] = Activity of the enzymes without added Ca2+; format: biochemical; conditions: no CaCl2 added (Table 5)
Protocol: as §1

[15] = Optimum pH; format: biochemical; conditions: 37° C. for 10 minutes
[16] = pH stability; format: physicochemical; conditions: treatment at 37° C. for 10 minutes
[17] = Temperature stability; format: physicochemical; conditions: pH 7 for 10 minutes
[18] = inhibitor 1 mM, 25° C. for 30 minutes, None = 100
[19] = inhibitor 1 mM, 25° C. for 30 minutes
[20] = substrate 5 mM, with hydroxylamine

Molecule: [Cl-].[Cl-].[Zn+2] [ZnCl2]
- BTG-1 (%) activity with metal ion [1]: 15%
- BTG-2 (%) activity with metal ion [2]: 24%
- BTG-3 (%) activity with metal ion [3]: 24%
- Effect of metal ion on activity of all BTGases (in words) [4]: inhibited

Molecule: O=C(O)c1cc[c]([Hg][Cl])cc1 [PCMB, p-chloromercury benzoic acid]
- BTG-1 (%) activity with inhibitor [5, 18]: 54%
- BTG-2 (%) activity with inhibitor [6, 18]: 61%
- BTG-3 (%) activity with inhibitor [7, 18]: 63%
- Effect of inhibitor on activity of all BTGases (in words) [8, 19]: inhibited

Molecule: CCN1C(=O)C=CC1=O [NEM, N-ethylmaleimide]
- inhibition at 1000 µM [5, 18]: 5%
- inhibition at 1000 µM [6]: 5%
- inhibition at 1000 µM [7, 18]: 3%
- Effect of inhibitor on activity of all BTGases (in words) [8, 19]: inhibited

Molecule: [Cl][Cu][Cl] [CuCl2]
- BTG-1 (%) activity with metal ion [1]: 79%
- BTG-2 (%) activity with metal ion [2]: 82%
- BTG-3 (%) activity with metal ion [3]: 86%
- Effect of metal ion on activity of all BTGases (in words) [4]: inhibited

Molecule: O=C(O)CI [Monoiodoacetic acid]
- inhibition at 1000 µM [5]: 64%
- inhibition at 1000 µM [6]: 50%
- inhibition at 1000 µM [7]: 67%
- Effect of inhibitor on activity of all BTGases (in words) [8]: inhibited

Molecule: NC(=O)CC[C@H](NC(=O)OCc1ccccc1)C(=O)NCC(=O)O [CBZ--Gln--Gly, benzyloxycarbonylglutaminyl glycine] (Cbz-Gln-Gly-OH)
- Substrate specificity (%) BTG-1 ([9]; Table 4): 100%
- Reactivity of substrate with BTG-1 (relative, Table 1) [9, 20]: 100
- Substrate specificity (%) BTG-2 ([10]; Table 4): 100%
- Reactivity of substrate with BTG-2 (relative, Table 1) [10, 20]: 100
- Substrate specificity (%) BTG-3 ([11]; Table 4): 100%
- Reactivity of substrate with BTG-3 (relative, Table 1) [11, 20]: 100
- Substrate specificity (%) MTGase [12]: 100%
- Reactivity of synthetic substrate with the BTGases (in words) [13]: reactivity is the highest

B1: BTG-1: transglutaminase of Streptoverticillium mobaraense IFO 13819 (protein, UniProt P81453 77-407, looked up)
Protein-glutamine …: DSDDRVTPPAEPLDRMPDPYRPSYGRAETVVNNYIRKWQQVYSHRDGRKQQMTEEQREWLSYGCVGVTWVNSGQYPTNRLAFASFDEDRFKNELKNGRPRSGETRAEFEGRVAKESFDEEKGFQRAREVASVMNRALENAHDESAYLDNLKKELANGNDALRNEDARSPFYSALRNTPSFKERNGGNHDPSRMKAVIYSKHFWSGQDRSSSADKRKYGDPDAFRPAPGTGLVDMSRDRNIPRSPTSPGEGFVNFDYGWFGAQTEADADKTVWTHGNHYHAPNGSLGAMHVYESKFRNWSEGYSDFDRGAYVITFIPKSWNTAPDKVKQGWP
- Activity (%) of the enzyme, metal ion: None [14]: 99%
- Optimum pH [15]: 6-7
- pH Stability (stable pH range) [16]: 5-9
- Temperature stability (%), 40° C. residual rate ([17]; 40° C.): 88%
- Temperature stability (%), 50° C. residual rate ([17]; 50° C.): 74%
